Laboratory results: US12060333B2 (Hoffmann-La Roche Inc., priority 2021, dated 2024)

biological target: SARS-CoV-2 3CLpro (Severe acute respiratory syndrome coronavirus 2, UniProt P0DTD1); experiment: biochemical; conditions: IC50 (μM), SARS-CoV-2 3CLPro assay

Q: For `COc1cc2cc(C(=O)N[C@@H](CC(C)C)C(=O)NN(CCC(N)=O)C(=O)C(F)Cl)[nH]c2cn1` (mixture of isomers) [Example 89, 5-methoxy-N-[rac-(1S)-1-[[(3-amino-3-axo-propyl)-(2-chloro-2-fluoro-acetyl)amino]carbamoyl]-3-methyl-butyl]-1H-pyrrolo[2,3-c]pyridine-2-carboxamide], which IC50 is on record?
A: 0.019 µM

Q: With `CC(C)C[C@H](NC(=O)c1cc2cc(Cl)ccc2[nH]1)C(=O)NN(CCC(N)=O)C(=O)[C@@H](F)Cl` (racemic) [Example 58-A, 5-Chloro-N-[rac-(1S)-1-[[(3-amino-3-oxo-propyl)-[rac-(2S)-2-chloro-2-fluoro-acetyl]amino]carbamoyl]-3-methyl-butyl]-1H-indole-2-carboxamide] as the compound, how does the IC50 read?
A: 0.032 µM

Q: Which IC50 does the source give for `CC(C)C[C@H](NC(=O)c1cc2ccccc2[nH]1)C(=O)NN(C[C@H]1CCNC1=O)C(=O)CF` (single isomer, unassigned) [Example 38-B] here?
A: 3.16 µM

Q: Which IC50 does the source give for `CC(C)C[C@H](NC(=O)c1cc2c(Cl)cccc2[nH]1)C(=O)NN(CCC(N)=O)C(=O)[C@@H](F)Cl` (single isomer, unassigned) [Example 53-A] here?
A: 0.014 µM

Q: How did the IC50 turn out when `NC(=O)CCN(NC(=O)[C@H](CC1CCCCC1)NC(=O)OCc1ccccc1)C(=O)[C@@H](F)Cl` (single isomer, unassigned) [Example 16-A] was run?
A: 0.053 µM

Q: How did the IC50 turn out when `COc1cccc(NCC(=O)N[C@@H](CC(C)C)C(=O)NN(CCC(N)=O)C(=O)[C@@H](F)Cl)c1` (single isomer, unassigned) [Example 83-B] was run?
A: 0.06 µM

Q: Which IC50 does the source give for `COc1cccc2[nH]c(C(=O)N[C@@H](CC(C)C)C(=O)NN(CCC(N)=O)C(=O)CF)cc12` [Example 30, N-[(1S)-1-[[(3-Amino-3-axo-propyl)-(2-fluoroacetyl)amino]carbamoyl]-3-methyl-butyl]-4-methoxy-1H-indole-2-carboxamide] here?
A: 0.16 µM

Q: For `CC(C)C[C@H](NC(=O)c1nc2cc(Cl)ccc2[nH]1)C(=O)NN(CCC(N)=O)C(=O)[C@@H](F)Cl` (racemic) [Example 60-A, 5-chloro-N-[rac-(1S)-1-[[(3-amino-3-axo-propyl)-[rac-(2S)-2-chloro-2-fluoro-acetyl]amino]carbamoyl]-3-methyl-butyl]-1H-benzimidazole-2-carboxamide], which IC50 is on record?
A: 0.008 µM

Q: How did the IC50 turn out when `COc1cccc2[nH]c(C(=O)N[C@@H](CC3CCCCC3)C(=O)NN(CCC(N)=O)C(=O)CCl)cc12` [Example 32, N-[(1S)-2-[2-(3-Amino-3-axo-propyl)-2-(2-chloroacetyl)hydrazino]-1-(cyclohexylmethyl)-2-axo-ethyl]-4-methoxy-1H-indole-2-carboxamide] was run?
A: 0.002 µM

Q: `NC(=O)CCN(NC(=O)[C@H](CC1CCC1)NC(=O)c1cnccn1)C(=O)C(F)Cl` (mixture of isomers) [Example 79, N-[rac-(1S)-2-[2-(3-amino-3-oxo-propyl)-2-(2-chloro-2-fluoro-acetyl)hydrazino]-1-(cyclobutylmethyl)-2-axo-ethyl]pyrazine-2-carboxamide] was tested. Which IC50 did it give?
A: 0.15 µM

Q: How did the IC50 turn out when `CC(C)C[C@H](NC(=O)c1cc2ccccc2[nH]1)C(=O)NN(CCC(N)=O)C(=O)CF` [Example 31, N-[(1S)-1-[[(3-Amino-3-axo-propyl)-(2-fluoroacetyl)amino]carbamoyl]-3-methyl-butyl]-1H-indole-2-carboxamide] was run?
A: 0.65 µM

Q: `NC(=O)CCN(NC(=O)[C@H](CC1CCCCC1)NC(=O)OCc1ccccc1)C(=O)C(F)Cl` (stereo partly drawn) [Example 16, Benzyl N-[(1S)-2-[2-(3-amino-3-oxo-propyl)-2-(2-chloro-2-fluoro-acetyl)hydrazino]-1-(cyclohexylmethyl)-2-axo-ethyl]carbamate] was tested. Which IC50 did it give?
A: 0.009 µM

Q: For `CC(C)C[C@H](NC(=O)c1cc2ccccc2[nH]1)C(=O)NN(CCC(N)=O)C(=O)[C@@H](F)Cl` (single isomer, unassigned) [Example 41-A], which IC50 is on record?
A: 0.005 µM

Q: `Cc1cc(C(=O)NC(CC(C)C)C(=O)NN(CCC(N)=O)C(=O)C(F)Cl)no1` (racemic) [Example 97, 5-Methyl-N-[rac-(1S)-1-[[(3-amino-3-oxo-propyl)-(2-chloro-2-fluoro-acetyl)amino]carbamoyl]-3-methyl-butyl]isoxazole-3-carboxamide] was tested. Which IC50 did it give?
A: 0.91 µM

same assay, conditions: read-out: IC50 (μM), SARS-CoV-2 3CLPro assay

Q: How did the IC50 turn out when `NC(=O)CCN(NC(=O)[C@H](CC1CCCCC1)NC(=O)/C=C/c1ccc(Cl)cc1F)C(=O)CCl` [Example 33, 3-[(2-Chloroacetyl)-[[(2S)-2-[[(E)-3-(4-chloro-2-fluoro-phenyl)prop-2-enoyl]amino]-3-cyclohexyl-propanoyl]amino]amino]propanamide] was run?
A: 0.002 µM

Q: With `CNC(=O)CCN(NC(=O)[C@H](CC(C)C)N(C)C(=O)c1cc2ccccc2[nH]1)C(=O)CCl` [Example 50, N-[(1S)-1-[[(2-Chloroacetyl)-[3-(methylamino)-3-oxo-propyl]amino]carbamoyl]-3-methyl-butyl]-N-methyl-1H-indole-2-carboxamide] as the compound, how does the IC50 read?
A: 0.074 µM

Q: How did the IC50 turn out when `NC(=O)CCN(NC(=O)[C@H](CC1CCCCC1)NC(=O)c1cc2ccccc2[nH]1)C(=O)CF` [Example 36, N-[(1S)-2-[2-(3-Amino-3-axo-propyl)-2-(2-fluoroacetyl)hydrazino]-1-(cyclohexylmethyl)-2-axo-ethyl]-1H-indole-2-carboxamide] was run?
A: 0.14 µM

Q: Which IC50 does the source give for `CC(C)C[C@H](NC(=O)OCc1ccccc1)C(=O)NN(CC1CCNC1=O)C(=O)CCl` (stereo partly drawn) [Example 18, Benzyl N-[(1S)-1-[[(2-chloroacetyl)-[(2-oxo-pyrrolidin-3-yl)methyl]amino]carbamoyl]-3-methyl-butyl]carbamate] here?
A: 0.017 µM

Q: `CC(C)C[C@H](NC(=O)c1cc2ncccc2[nH]1)C(=O)NN(CCC(N)=O)C(=O)C(F)Cl` (stereo partly drawn) [Example 91, N-[(1S)-1-[[(3-amino-3-oxo-propyl)-(2-chloro-2-fluoro-acetyl)amino]carbamoyl]-3-methyl-butyl]-1H-pyrrolo[3,2-b]pyridine-2-carboxamide] was tested. Which IC50 did it give?
A: 0.038 µM

Q: `Cc1cc(C(=O)N[C@@H](CC2CCCCC2)C(=O)NN(CCC(N)=O)C(=O)CCl)no1` [Example 48, N-[(1S)-2-[2-(3-amino-3-oxo-propyl)-2-(2-chloroacetyl)hydrazino]-1-(cyclohexylmethyl)-2-axo-ethyl]-5-methyl-isoxazole-3-carboxamide] was tested. Which IC50 did it give?
A: 0.004 µM

Q: With `CC(C)C[C@H](NC(=O)OCc1ccccc1)C(=O)NN(CCC(N)=O)C(=O)CCl` [Example 2, Benzyl N-[(1S)-1-[[(3-amino-3-oxo-propyl)-(2-chloroacetyl)amino]carbamoyl]-3-methyl-butyl]carbamate] as the compound, how does the IC50 read?
A: 0.017 µM

Q: `COc1cccc2[nH]c(C(=O)N[C@@H](CC3CCCCC3)C(=O)NN(CCC(N)=O)C(=O)CF)cc12` [Example 37, N-[(1S)-2-[2-(3-Amino-3-axo-propyl)-2-(2-fluoroacetyl)hydrazino]-1-(cyclohexylmethyl)-2-axo-ethyl]-4-methoxy-1H-indole-2-carboxamide] was tested. Which IC50 did it give?
A: 0.038 µM

Q: With `CC1(C[C@H](NC(=O)c2cc(C(F)(F)F)on2)C(=O)NN(C[C@@H]2CCNC2=O)C(=O)[C@H](F)Cl)CC1` [Example 98, N—((S)-1-(2-((R)-2-Chloro-2-fluoroacetyl)-2-(((S)-2-axopyrrolidin-3-yl)methyl)hydrazineyl)-3-(1-methylcyclopropyl)-1-oxopropan-2-yl)-5-(trifluoromethyl)isoxazole-3-carboxamide] as the compound, how does the IC50 read?
A: 0.017 µM

Q: Which IC50 does the source give for `NC(=O)CCN(NC(=O)[C@H](CC1CCCCC1)NC(=O)OCc1ccccc1)C(=O)CF` [Example 15, Benzyl N-[(1S)-2-[2-(3-amino-3-oxo-propyl)-2-(2-fluoroacetyl)hydrazino]-1-(cyclohexylmethyl)-2-axo-ethyl]carbamate] here?
A: 1.2 µM

Q: `CCC(Cl)C(=O)N(CCC(N)=O)NC(=O)[C@H](CC(C)C)NC(=O)OCc1ccccc1` (stereo partly drawn) [Example 5, Benzyl N-[(1S)-1-[[(3-amino-3-oxo-propyl)-(2-chlorobutanoyl)amino]carbamoyl]-3-methyl-butyl]carbamate] was tested. Which IC50 did it give?
A: 1.76 µM

Q: With `CC(C)C[C@@H](C(=O)NN(CCC(N)=O)C(=O)CCl)N(C)C(=O)c1cc2ccccc2[nH]1` [Example 40, N-[(1S)-1-[[(3-Amino-3-axo-propyl)-(2-chloroacetyl)amino]carbamoyl]-3-methyl-butyl]-N-methyl-1H-indole-2-carboxamide] as the compound, how does the IC50 read?
A: 0.007 µM

Q: With `CC(C)C[C@H](NC(=O)c1cc2cccnc2[nH]1)C(=O)NN(CCC(N)=O)C(=O)CCl` [Example 44, N-[(1S)-1-[[(3-Amino-3-oxo-propyl)-(2-chloroacetyl)amino]carbamoyl]-3-methyl-butyl]-1H-pyrrolo[2,3-b]pyridine-2-carboxamide] as the compound, how does the IC50 read?
A: 0.017 µM

Q: `CC(C)C[C@H](NC(=O)OCc1ccccc1)C(=O)NN(Cc1c[nH]cn1)C(=O)CCl` [Example 24, Benzyl N-[(1S)-1-[[(2-chloroacetyl)-(1H-imidazol-4-ylmethyl)amino]carbamoyl]-3-methyl-butyl]carbamate] was tested. Which IC50 did it give?
A: 0.087 µM

Q: Which IC50 does the source give for `Cc1oncc1C(=O)N[C@@H](CC(C)C)C(=O)NN(CCC(N)=O)C(=O)CCl` [Example 46, N-[(1S)-1-[[(3-Amino-3-oxo-propyl)-(2-chloroacetyl)amino]carbamoyl]-3-methyl-butyl]-5-methyl-isoxazole-4-carboxamide] here?
A: 0.07 µM

Q: `CC(C)C[C@H](NC(=O)OCc1ccccc1)C(=O)NN(CCC(N)=O)C(=O)C(F)Cl` (stereo partly drawn) [Example 17, Benzyl N-[(1S)-1-[[(3-amino-3-oxo-propyl)-(2-chloro-2-fluoro-acetyl)amino]carbamoyl]-3-methyl-butyl]carbamate] was tested. Which IC50 did it give?
A: 0.09 µM

Q: `CC(C)C[C@H](NC(=O)OCc1ccccc1)C(=O)NN(Cc1cc[nH]n1)C(=O)CCl` [Example 23, Benzyl N-[(1S)-1-[[(2-chloroacetyl)-(1H-pyrazol-3-ylmethyl)amino]carbamoyl]-3-methyl-butyl]carbamate] was tested. Which IC50 did it give?
A: 0.034 µM

Q: Which IC50 does the source give for `COc1cccc2[nH]c(C(=O)N[C@@H](CC3CCCCC3)C(=O)NN(CCC(N)=O)C(=O)[C@H](F)Cl)cc12` [Example 56-B, N-[(1S)-2-[2-(3-amino-3-oxo-propyl)-2-[(2S)-2-chloro-2-fluoro-acetyl]hydrazino]-1-(cyclohexylmethyl)-2-axo-ethyl]-4-methoxy-1H-indole-2-carboxamide] here?
A: 0.003 µM
